{
  "source": "paper PMC10526672",
  "about": "“A genome-wide CRISPR/Cas9 screen identifies DNA-PK as a sensitiser to ^177Lutetium-DOTA-octreotate radionuclide therapy” (Theranostics, 2023)",
  "key": {"[1]": {"test_system": "H1299-7 xenografts", "experiment": "H1299-7 xenograft in BALB/c nude mice", "format": "in vivo", "details": "single agent: 6 MBq LuTate single iv dose, or nedisertib 150 mg/kg oral for 6 days", "description": "(§1) All animal experiments were performed with approval from the Peter MacCallum Cancer Centre Animal Experimentation Ethics Committee, and in accordance with the Australian code for the care and use of animals for scientific purposes (8th Edition, 2013). Four- to seven-week-old female BALB/c nude mice were sourced from Animal Resources Centre (Canning Vale, Western Australia). 3 × 10^6 AR42J or 5 × 10^6 H1299-7 cells were subcutaneously implanted onto the right flank of the mice in a 50% Matrigel (Corning):PBS mixture. Mice were weighed, and tumours measured twice weekly using electronic calipers. Tumour volume (mm^3) was calculated as length × width × height × π/6. Once tumours reached a volume of 50-300 mm^3, the animals were randomised into groups of 9-10 mice and injected intravenously with a single dose (5-10 MBq in 100-200 μL) LuTate or vehicle (saline). At 24 h post LuTate injection mice began once-daily oral dosing of DNA-PK inhibitor nedisertib (150 mg/kg) or vehicle (10% DMSO, 40% PEG300, 5% Tween-80, 45% saline) in a volume of 10 ml/kg for 6 consecutive days. Mice were monitored 2-3 times weekly for overall weight as an indicator of murine health and tumour volume measured. Mice were euthanised once the tumour volume exceeded 1200 mm^3."}, "[2]": {"test_system": "AR42J tumours", "experiment": "AR42J xenograft in BALB/c nude mice", "format": "in vivo, mouse", "description": "as §1"}, "[3]": {"test_system": "SKNBE-2 cells", "experiment": "Cell growth assay, Day 14", "format": "cell-based, human", "description": "(§2) For LuTate treatment, aliquots of 4 × 10^6 cells were collected and resuspended in 500 μl DMEM + 1% FCS, and treated with either 0, 5, 10 or 20 MBq/mL LuTate for 4 h in suspension at 37°C and 5% CO2 with mixing every hour. Cells were resuspended in 4 mL full media and plated in 6 well plates at a concentration of 0.5 × 10^6 cells per well. For drug combination experiments, 24 h post LuTate treatment, cells were treated with either 0.5 μM or 1 μM of either AZD-7648 or nedisertib.\n(§3) Cell growth was tracked over a 14-day period. Cells were counted and replated at 0.2 × 10^6 cells per well on Days 2, 6 and 9, with a final count on Day 14. Because of the exponential growth or significant lethality of the various cultures, not all cells were necessarily re-seeded at each subculture interval. However, the cell growth assay data is corrected for the fraction of cells re-plated so the data is expressed for all conditions as though all cells were re-plated at each interval (illustrated in Supplementary Figure S1). The total number of cells is thus the theoretical total number of cells over time if all cells at each subculture interval were re-seeded at identical density, calculated by: […]\nCell growth was normalised to the appropriate control for each experiment. […]"}, "[4]": {"test_system": "H1299-7 MVP KO cells", "experiment": "LuTate retention assay", "format": "cell-based, human", "details": "5 MBq/mL LuTate for 4 h", "description": "(§4) H1299-7, H1299-7 Cas9, MVP KO and Beta-Arrestin 2 KO cells were treated with either 0 or 5 MBq/mL LuTate using the same suspension protocol as for the growth experiments. After 4 h of treatment, cells were washed and triplicate aliquots collected for the 4 h timepoint, and the remaining cells plated in triplicate in 6 well plates for 24 h. For collection of samples, cells were spun down, washed twice, and resuspended in 500 μl PBS. All experiments were repeated as biological triplicates. Samples were stored at RT for 2-3 half-lives of LuTate (2-3 weeks), before being counted on the Captus 4000e gamma counter (Capintec). Percent LuTate retained by the cells was calculated as a percent of total activity added and averaged across the triplicate experiments."}, "[5]": {"test_system": "H1299-7 Beta-Arrestin 2 KO cells", "experiment": "LuTate retention assay", "format": "cell-based, human", "details": "4 h treatment with 5 MBq/mL LuTate then 24 h in fresh medium, gamma counter, biological triplicates, p-value 0.01 vs control", "description": "as §4"}, "[6]": {"test_system": "H1299-7 cells", "experiment": "LuTate retention assay", "format": "cell-based, human", "details": "H1299-7 control cells, 4 h treatment with 5 MBq/mL LuTate then 24 h in fresh medium, gamma counter, biological triplicates", "description": "as §4"}, "[7]": {"test_system": "H1299-7 MVP KO cells", "experiment": "Cell growth assay over 14 days", "format": "cell-based, human", "details": "5 MBq/mL LuTate", "description": "(§5) Two gRNA (from the Brunello library, as determined in the MaGeCK count files) with the most significant enrichment or depletion for the genes to be validated, were pooled and nucleofected into H1299-7 Cas9 cells, using the Amaxa 4D nucleofector (Lonza), solution SF and program EW-127 (Lonza, optimised protocol for H1299 cells). Cells were nucleofected with 75 pmol of each gRNA in 20 μl (gRNA from Integrated DNA Technologies, sequences in supplementary Table 2). Efficiency of gene knockout was determined at 72 h post nucleofection through western blot or DNA sequencing. The resulting cell lines were H1299-7 Beta-Arrestin 2 knockout (KO), MVP KO, Artemis KO, and DNA-PK KO.\nas §2, §3\n(§6) Cell growth was normalised to the appropriate control for each experiment. For growth curves showing validation of the CRISPR result, results were graphed showing the alteration in cell population, as compared to control, over time (out to Day 14). For all other assays (combination experiments, and experiments using AR42J or SKNBE-2 cells), results are shown comparing cell population at the Day 14 timepoint. All assays were repeated as at least biological triplicates."}, "[8]": {"test_system": "H1299-7 DNA-PK KO cells", "experiment": "Cell growth assay over 14 days", "format": "cell-based, human", "description": "as §5, §2, §3, §6"}, "[9]": {"test_system": "H1299-7 Artemis KO cells", "experiment": "Cell growth assay over 14 days", "format": "cell-based, human", "description": "as §5, §2, §3, §6"}, "[10]": {"test_system": "H1299-7 Beta-Arrestin 2 KO cells", "experiment": "Cell growth assay over 14 days", "format": "cell-based, human", "description": "as §5, §2, §3, §6"}, "[11]": {"test_system": "H1299-7 cells", "experiment": "Cell growth assay over 14 days, LuTate alone or with DNA-PK inhibitor", "format": "cell-based, human", "details": "parental H1299-7 cells, 20 MBq/mL LuTate", "quoted_text": "Total Cells = Cell Number counted (1 well) × Number of Wells required\nNumber of Wells required going forward = Total Cells/0.2 × 10^6\nCell growth was normalised to the appropriate control for each experiment. […] All assays were repeated as at least biological triplicates."}, "[12]": {"test_system": "unselected tumours", "details": "phase I clinical trial, cited from earlier work", "excerpt": "To this end, several clinical trials are evaluating the tolerability and efficacy of nedisertib in humans. […] Current clinical trials are focusing on the combination of nedisertib and radiotherapy in the setting of pancreatic cancers (NCT04172532) and glioblastoma and gliosarcoma (NCT04555577), as well as others. Additionally, there are two studies investigating the combination ..."}},
  "data": [
    {"compound": "C[C@@H](O)[C@H](NC(=O)[C@@H]1CSSC[C@H](NC(=O)[C@@H](Cc2ccccc2)NC(=O)CN2CCN(CC(=O)[O-])CCN(CC(=O)[O-])CCN(CC(=O)[O-])CC2)C(=O)N[C@@H](Cc2ccc(O)cc2)C(=O)N[C@H](Cc2c[nH]c3ccccc23)C(=O)N[C@@H](CCCCN)C(=O)N[C@@H]([C@@H](C)O)C(=O)N1)C(=O)O.[177Lu+3]", "note": "[LuTate, ^177Lutetium-DOTA-octreotate]", "values": [
      {"measurement": "impact on tumour growth or survival compared to untreated controls", "setting": "[1]", "result": "no impact"},
      {"measurement": "tumour control post the end of treatment", "setting": "[2]; AR42J tumours, 9 MBq LuTate single dose with or without 6 days nedisertib 150 mg/kg, 9-10 mice per group", "result": 10, "unit": "days"},
      {"measurement": "median survival", "setting": "[2]; AR42J xenograft mice, 9 MBq LuTate with or without nedisertib 150 mg/kg for 6 days, vehicle control 10 days, p-value 0.0001", "result": 28, "unit": "days"},
      {"measurement": "reduction of survival", "setting": "[3]; 20 MBq/mL LuTate alone, Day 14", "result": 50, "unit": "%"},
      {"measurement": "effect on cell survival", "setting": "[3]; LuTate doses of less than 10 MBq/mL", "result": "little effect"},
      {"measurement": "amount of LuTate retained versus control cells", "setting": "[4]", "result": "no alteration"},
      {"measurement": "LuTate retained (percent of total activity added)", "setting": "[5]", "result": 14.5, "unit": "%"},
      {"measurement": "LuTate retained (percent of total activity added)", "setting": "[6]", "result": 32, "unit": "%"},
      {"measurement": "increase in relative growth versus parental H1299-7 cells", "setting": "[7]", "result": "two-fold"},
      {"measurement": "times more sensitive to LuTate than control cells", "setting": "[8]; 5 MBq/mL LuTate, Day 14, p value 0.0017", "result": 10, "unit": "times"},
      {"measurement": "cell population by Day 14", "setting": "[8]; 10 MBq/mL LuTate", "result": "almost completely eradicated"},
      {"measurement": "times more sensitive to LuTate than control cells", "setting": "[9]; 5 MBq/mL LuTate, Day 14, p value 0.0021", "result": 20, "unit": "times"},
      {"measurement": "cell population by Day 14", "setting": "[9]; 10 MBq/mL LuTate", "result": "almost completely eradicated"},
      {"measurement": "relative growth (% of control) at Day 14", "setting": "[9]; 10 MBq/mL LuTate for 4 h in suspension", "result": 0.0038, "unit": "%"},
      {"measurement": "relative growth (% of control) at Day 14", "setting": "[9]; 20 MBq/mL LuTate for 4 h", "result": 0.000296, "unit": "%"},
      {"measurement": "increase in relative growth versus parental H1299-7 cells", "setting": "[10]; 5 MBq/mL LuTate", "result": "two-fold"},
      {"measurement": "increase in survival versus parental H1299-7 cells", "setting": "[10]; 10 MBq/mL LuTate, p-value 0.015", "result": "four-fold"},
      {"measurement": "survival (expansion of parental cells)", "setting": "[11]", "result": "< 0.1", "unit": "%"}
    ]},
    {"compound": "COc1ccc([C@@H](O)c2cc(-c3ncnc4cc(N5CCOCC5)ccc34)c(F)cc2Cl)nn1", "note": "[nedisertib]", "values": [
      {"measurement": "impact on tumour growth or survival compared to untreated controls", "setting": "[1]", "result": "no impact"},
      {"measurement": "efficacy in humans", "setting": "[12]; unselected tumours", "result": "modest efficacy"},
      {"measurement": "tolerability in humans", "setting": "[12]", "result": "well tolerated"}
    ]}
  ]
}
